Laboratory results from patent US20240417359A1, “PRECURSORS OF PHENOLIC FRAGRANT COMPOUNDS” (GIVAUDAN SA, priority 2021, published 2024).
Entries after “also recorded” stand apart in the source; their conditions may differ.

How the values were obtained:
[1] = Washtest with liquid detergent and sensory evaluation of fabric by expert panel; details: for odour released on dry fabric: comparison of double bond position Δ-2, Δ-3, Δ-4
Protocol: The wet and line-dried fabric (1 and 4 days) was assessed by a panel of 4-6 experts with regard to odour intensity and quality. The odour intensity was recorded on an intensity scale of 0 (odourless) to 5 (extremely strong).
The odour intensity was recorded on an intensity scale of 0 (odorless) to 5 (extremely strong).
Heavy duty liquid detergent samples were prepared and used in washtests and subsequent sensory evaluation of the washed and dried fabric as described in Example 60a and c. The odour intensity was recorded on an intensity scale of 0 (odourless) to 5 (extremely strong).

[2] = as above; details: Table 2; dry fabric 3 days; scale 0 to 5
[3] = Odour description on paper blotter; details: 1% solution in EtOH on paper blotter, 24 h
[4] = Biodegradability, manometric respirometry test (OECD 301F); details: pass level 60% oxygen consumption of theory
Description: The results of the biodegradability assessment by the manometric respirometry test (OECD guideline for the testing of materials No. 301F, Paris 1992) are summarized in Table 6.
A compound can be classified biodegradable, if it reaches the pass level of 60% oxygen consumption of theory required for complete mineralization.
It is readily biodegradable, if the pass level is reached within 10 days within the 28-day period of the test. The 10-day window begins when the degree of biodegradation has reached 10%. If the pass level is obtained after 28-day period of the test, the compound can be classified as inherently biodegradable.

[5] = Application in shampoo base: sensory evaluation of washed hair swatches by expert panel; set-up: species or system human; details: Table 4
Protocol: Odour-neutral human hair swatches were wetted with warm tap water and lathered delicately with 2 mL of the above hair shampoo samples for 30 sec by hand wearing gloves. The lathered hair swatches were left in a plastic bowl for 2 min, then rinsed under running tap water for 20 sec. After removing excess water by squeezing the hair swatches between two fingers, they were left to dry in open air. The wet and dried hair swatches (1 and 3 days) were assessed by a panel of 4-6 experts with regard to odour intensity and quality. The odour intensity was recorded on an intensity scale of 0 (odourless) to 5 (extremely strong).

[6] = Colour stability in liquid detergent base (visual inspection); format: physicochemical; details: 0.2% by weight in unperfumed liquid detergent base, compared to unperfumed base
Description: The above prepared samples were visually inspected in comparison to an unperfumed base sample (sample C).

[7] = Table 2, dry fabric 1 day, scale 0 to 5
[8] = Table 2, liquid detergent washtest
[9] = Table 2, liquid detergent washtest, wet fabric, scale 0 (odorless) to 5 (extremely strong)
[10] = Table 3, dry fabric 1 day, scale 0 to 5
[11] = Table 3, dry fabric 4 days, scale 0 to 5
[12] = Table 3, heavy duty liquid detergent washtest, wet fabric, scale 0 to 5

Row | SMILES | odour intensity, 1 day [1, 7] | odour on dry fabric [1, 8] | odour intensity, wet [1, 9] | odour released on dry fabric [1] | odour intensity, 3 days [2] | Odour description [3] | Biodegradation in % [4] | further results
1 | CC/C=C\C/C=C\COc1ccc(C=O)cc1OCC [3-ethoxy-4-(((2Z,5Z)-octa-2,5-dien-1-yl)oxy)benzaldehyde, reference compound] | 2.8 | metallic | 0.9 | weak and unpleasant odours | 2.3 | – | – | –
2 | CC/C=C\CCC(CCCCCCCCC)Oc1ccc(C=O)cc1OCC (stereo not drawn) [(Z)-3-ethoxy-4-(hexadec-3-en-7-yloxy)benzaldehyde, reference compound] | 1.2 | rubbery, metallic | 1.1 | weak and unpleasant odours | 1.6 | – | – | –
3 | CCCCCC[C@@H](C/C=C\CCCCCCCC(=O)OC)Oc1ccc(CCC(C)=O)cc1 [Example 2, methyl (S,Z)-12-(4-(3-oxobutyl)phenoxy)octadec-9-enoate] | – | – | – | – | – | powdery fruity raspberry, green, fatty | 88% | –
4 | CC/C=C\CC(CCCCC)Oc1ccc(C=O)cc1OCC (stereo not drawn) [Example 17, (Z)-3-ethoxy-4-(undec-3-en-6-yloxy)benzaldehyde] | – | – | – | – | – | powdery (dry, vanilla, chocolate) | 86% | –
5 | CC/C=C\CC(CCCCCCCCC)Oc1ccc(C=O)cc1OCC (stereo not drawn) [Example 28, (Z)-3-ethoxy-4-(Pentadec-3-en-6-yloxy)benzaldehyde] | – | – | – | – | – | powdery, creamy, vanilla, aldehydic, mandarin | – | odour on dry hair ([5]; 0.2% by weight in shampoo base): mandarin, vanilla; odour intensity, wet ([5]; 0.2% by weight in shampoo base, wet hair swatch, scale 0 (odourless) to 5 (extremely strong)): 1.7; odour intensity, 1 day ([5]; dried hair swatch 1 day, scale 0 to 5): 3.5; odour intensity, 3 days ([5]; dried hair swatch 3 days, scale 0 to 5): 4.4; odour intensity, 1 day ([1]; Table 1, line-dried fabric 1 day, scale 0 to 5): 2.3; odour intensity, 4 days ([1]; Table 1, line-dried fabric 4 days, scale 0 to 5): 2.6; odour intensity, wet ([1]; Table 1, liquid detergent 0.2% by weight, 40° C. machine wash, cotton/elastan fabric, wet, scale 0 (odourless) to 5 (extremely strong)): 2.1; odour intensity, 1 day [1, 10]: 2.3; odour intensity, 4 days [1, 11]: 2.6; odour intensity, wet [1, 12]: 2.1; odour released from washed fabric ([1]; liquid detergent washtest, dry fabric): mandarin, vanilla and powdery fragrance; Colour of liquid detergent sample (visual inspection) [6]: optically identical to the unperfumed base
6 | CC/C=C/CC(CCCCCCCCC)Oc1ccc(C=O)cc1OCC (stereo not drawn) [Example 29, (E)-3-ethoxy-4-(pentadec-3-en-6-yloxy)benzaldehyde] | – | – | – | – | – | powdery, creamy, vanilla, aldehydic, mandarin | 70% | –
7 | CC/C=C\C/C=C\CCOc1ccc(C=O)cc1OCC [Example 30, 3-ethoxy-4-(((3Z,6Z)-nona-3,6-dien-1-yl)oxy)benzaldehyde] | 3.4 | vanilla, green | 2.7 | strong and pleasant odour | 4.1 | green, leaf aldehyde, green apple, powdery, vanilla | – | odour intensity, 1 day [1, 10]: 3.4; odour intensity, 4 days [1, 11]: 4.1; odour intensity, wet [1, 12]: 2.7
8 | CCOc1cc(C=O)ccc1O [ethylvanillin, 3-ethoxy-4-hydroxybenzaldehyde] | – | – | – | – | – | – | – | Colour of liquid detergent sample (visual inspection) [6]: strong purple coloration; also recorded: colors the base
